Patent publication US7407941B2, “N-desmethyl-N-substituted-11-deoxyerythromycin compounds” (Pfizer, Inc., priority 2003, dated 2008)
pEC50: −log10 of the molar value. In brackets after ≈: the same amount, converted by molar mass.

Legend:
Format in all cases: cell-based
[1] = molecular target: T1, motilin receptor (Homo sapiens, UniProt O43193); experiment: Motilin agonist activity (activation of the motilin receptor)
T1 construct: expressed in transfected cells
Experimental: Compounds of this invention were tested for motilin agonist activity, following the procedure of Carreras et al., Anal. Biochem., 300, 146-151 (2002), the disclosure of which is incorporated herein by reference.

[2] = test system: Streptococcus pneumoniae ATCC 70071; experiment: In vitro antibacterial activity (MIC); conditions: ATCC70071, erythromycin sensitive strain ATCC 70071
Experimental: (§1) Compounds of this invention were tested for in vitro activity against three erythromycin sensitive strains of Streptococcus pneumoniae (ATCC 6301, ATCC 700671, and ATCC 49619), using methods known in the microbiological art.

[3] = test system: Streptococcus pneumoniae ATCC 6301; experiment: In vitro antibacterial activity (MIC); conditions: ATCC6301, erythromycin sensitive strain ATCC 6301
Experimental: as §1

[4] = test system: Streptococcus pneumoniae ATCC 49619; experiment: In vitro antibacterial activity (MIC); conditions: ATCC49619, erythromycin sensitive strain ATCC 49619
Experimental: as §1

T1 sequence (O43193 whole entry): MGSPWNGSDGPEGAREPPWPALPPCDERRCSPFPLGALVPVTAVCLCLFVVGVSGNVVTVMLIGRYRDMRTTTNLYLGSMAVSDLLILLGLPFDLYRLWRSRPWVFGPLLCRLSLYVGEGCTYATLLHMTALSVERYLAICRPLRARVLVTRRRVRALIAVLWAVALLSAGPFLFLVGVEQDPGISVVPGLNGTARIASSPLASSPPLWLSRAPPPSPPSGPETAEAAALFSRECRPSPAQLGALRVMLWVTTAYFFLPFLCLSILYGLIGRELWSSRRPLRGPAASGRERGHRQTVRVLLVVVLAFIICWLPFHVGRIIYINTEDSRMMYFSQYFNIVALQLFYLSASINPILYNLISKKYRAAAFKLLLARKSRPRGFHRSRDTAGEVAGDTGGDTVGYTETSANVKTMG

Row | SMILES | pEC50 [1] | MIC [2] | MIC [3] | MIC [4]
1 | CC[C@H]1OC(=O)[C@H](C)[C@@H](O[C@H]2C[C@@](C)(OC)[C@@H](O)[C@H](C)O2)[C@H](C)[C@@H](O[C@@H]2O[C@H](C)C[C@H](N(C)C)[C@H]2O)C(C)(O)C[C@@H](C)C(=O)[C@H](C)C[C@H]1C (stereo partly drawn) [11-Deoxyerythromycin B, reference compound] | 5.92 | 0.78 µg/mL (≈ 1.11 µM) | 0.049 µg/mL (≈ 0.0698 µM) | 0.098 µg/mL (≈ 0.14 µM)
2 | CC[C@H]1OC(=O)[C@H](C)[C@@H](O[C@H]2C[C@@](C)(OC)[C@@H](O)[C@H](C)O2)[C@H](C)[C@@H](O[C@@H]2O[C@H](C)C[C@H](N(C)C)[C@H]2O)[C@](C)(O)C[C@@H](C)C(=O)[C@H](C)[C@@H](O)[C@]1(C)O [Erythromycin A, reference compound] | – | 0.049 µg/mL (≈ 0.0668 µM) | 0.025 µg/mL (≈ 0.0341 µM) | 0.049 µg/mL (≈ 0.0668 µM)
3 | CC[C@H]1OC(=O)[C@H](C)[C@@H](O[C@H]2C[C@@](C)(OC)[C@@H](O)[C@H](C)O2)[C@H](C)[C@@H](O[C@@H]2O[C@H](C)C[C@H](N(C)C(C)C)[C@H]2O)C(C)(O)C[C@@H](C)C(=O)[C@H](C)C[C@H]1C (stereo partly drawn) [IVa, N-desmethyl-N-isopropyl-11-deoxyerythromycin B] | 6.15 | 200 µg/mL (≈ 274 µM) | 12.5 µg/mL (≈ 17.1 µM) | 6.25 µg/mL (≈ 8.56 µM)
4 | CC[C@H]1OC(=O)[C@H](C)[C@@H](O[C@H]2C[C@@](C)(OC)[C@@H](O)[C@H](C)O2)[C@H](C)[C@@H](O[C@@H]2O[C@H](C)C[C@H](N(C)CC(C)C)[C@H]2O)C(C)(O)C[C@@H](C)C(=O)[C@H](C)C[C@H]1C (stereo partly drawn) [IVb, N-desmethyl-N-isobutyl-11-deoxyerythromycin B] | 5.68 | > 200 µg/mL | 200 µg/mL (≈ 269 µM) | 200 µg/mL (≈ 269 µM)
